# Key:
# Type in all cases: in vivo, rat
# [1] = system: radiocontrast dye-induced renal failure; test: CIN, indomethacin/L-NAME/iothalamate model, Experiment 1
# Description: Animal Model: A model of radiocontrast dye-induced renal failure as described by Agmon et al. J Clin Invest 94:1069-1075 (1994) in this Example. As in humans, radiocontrast dye is generally non-toxic when administered to animals with normal renal function. However, radiocontrast dye can induce ARI in animals with impaired renal function. In this model, impaired renal function was induced by the administration of indomethacin (10 mg/kg) and L-NAME (10 mg/kg). The animals were divided into 3 groups: • 1. Group (1) control (n=8) • 2. Group (2) Indomethcin/L-NAME (given 15 min apart) followed by iothalamate (AngioConray 6 ml/kg) (n=7) • 3. Group (3) SS-31 (3 mg/kg, ip) was given 15 min prior to administration of indomethacin/L-NAME/iothalamate, and a second dose of SS-31 (3 mg/kg) was repeated immediately after drug exposure (n=9)
# Experimental Protocol: Rats were kept in metabolic cages (Nalge Co., Rochester, N.Y.) with free access to tap water and standard rat chow. After a baseline 24-h urinary collection, the rats were anesthetized with a mixture of ketamine (90 mg/kg, i.p.) and xylazine (4 mg/kg, i.p.). The left femoral vein and artery were cannulated and a baseline blood sample drawn (1 ml) for measurement of creatinine level. The animals then received the various drug treatments as indicated above. Iothalamate Meglumine 60% (contrast dye; AngioConray 6 ml/kg) was then injected through the arterial cannula. The left femoral artery was then ligated and the cannula removed. Rats were then returned to the metabolic cages for another 24-h urine collection. […]
# Renal Function: Renal function was assessed by determining GFR at baseline and 24 h following dye administration. […] Creatinine clearance was analyzed by measuring plasma (Pcr), urinary creatinine (Ucr) levels (Bioassay Systems; DICT-500) and urine volume.
# Renal Histology: Kidneys were fixed in 10% neutral-buffered formalin and embedded in paraffin wax. Three micron sections were stained with hematoxylin-eosin (H&E) and periodic acid-Schiff (PAS) and analyzed by light microscopy by a board certified pathologist.
# [2] = system: ARI caused by ureteral obstruction (UUO); test: 14-day UUO model: immunohistochemistry and TUNEL
# Description: (§1) Sprague-Dawley rats underwent unilateral ureteral ligation (UUO) with 4-0 silk suture through a midline abdominal incision under sterile conditions. Ureteral obstruction was carried out by ligating the left ureter at the end of lower ureter, just above the ureterovesical junction.
# (§2) SS-31 (1 mg/kg or 3 mg/kg; n=8) was administered intraperitoneally, one day prior to UUO and continuing for 14 days. A separate group of animals was given saline, as a vehicle control (n=16).
# Immunohistochemical Analysis: Immunohistochemical staining for macrophages was carried out using a monoclonal antibody to ED-1 (Serotec) as previously described. Macrophages were counted in 10 high-power fields (×400) by two different independent investigators in a blinded fashion. The TUNEL assay was performed as described in Example 1. The presence of fibroblasts was examined using immunohistochemistry, as described in Example 1. The antibody utilized was DAKO #S100-A4 (1:100 dilution). The S100-A4 antigen is also known as FSP-1 (fibroblast specific protein). Antigen was retrieved by incubating cells with Proteinase K for 20 min in an oven. The remaining immunoperoxidase protocol was carried out according to routine procedures. Staining for S100-A4 was found in spindle-shaped interstitial cells, and also in cells which were round, and were identified as inflammatory cells by the pathologist. Only spindle-shaped cells were included in the counts. […] 8-OH dG staining was carried using Proteinase K for antigen retrieval. The antibody used was from the Japan Institute Control of Aging, and was used at a dilution of 1:200-1:500.
# renal mitochondria = test: I/R model: respiration of isolated renal mitochondria; details: after 45 min ischemia, pretreatment
# Description: Results. The effects of the aromatic-cationic peptides of the invention on a model of ARI caused by ischemia-reperfusion were investigated. Renal mitochondria were isolated in accordance with the procedures described above and oxygen consumption was measured.
# State 3 respiration was initiated with the addition of ADP.
# [3] = system: heme oxygenase-1 (HO-1) expression; test: 14-day UUO model: RT-PCR for HO-1
# Description: as §1, §2
# Polymerase Chain Reaction Analysis: PCR for heme oxygenase-1 (HO-1) isolated from kidneys was performed as follows. Rat kidneys were harvested and were kept at −80° C. until use. Total RNA was extracted using the Trizol®-Chloroform extraction procedure. mRNA was purified using the Oligotex mRNA extraction kit (Qiagen, Valencia, Calif.) according to manufacturer's instructions. mRNA concentration and purity were determined by measuring absorbance at 260 nm. RT-PCR was preformed using Qiagen One-step PCR kit (Qiagen, Valencia, Calif.). PCR was performed in an automated thermal cycler ThermoHybrid, PX2 with an initial activation step for 15 min at 95° C. followed by 35 cycles of denaturation for 45 s at 94° C., annealing for 30 s at 60° C., extension for 60 s at 72° C. […] Bands on gels were visualized by ethidium bromide staining and analyzed using Image J densitometric analysis software. […]
substance,measurement,setting,value
D-Arg-2′6′Dmt-Lys-Phe-NH2 [SS-31],rats almost completely protected from the effects of the dye,[1]; 3 mg/kg ip before and after drug exposure,Six of nine
same,PAS staining of kidney,[1]; dye-injected,intact brush borders and normal glomeruli
same,apoptotic cells/hpf (TUNEL),[1]; dye-injected,greatly attenuated
same,fibroblast infiltration (FSP-1) in the OK,[2]; 1 mg/kg,43.4 % of control
same,tubular apoptosis (TUNEL),[2]; 1 mg/kg,5.1±0.5 cells per HPF
same,"tubular proliferation (PCNA), increase",[2]; 1 mg/kg,2 fold
same,fibroblast infiltration (FSP-1) in the OK,[2]; 3 mg/kg,28.0 % of the untreated OK
same,renal tubular apoptosis (TUNEL),[2]; 3 mg/kg,3.0±0.3 apoptotic cells/HPF
same,"tubular proliferation (PCNA), increase",[2]; 3 mg/kg,3.5 fold
same,macrophage infiltration into the OK (ED-1),[2]; 1 and 3 mg/kg,significantly decreased macrophage infiltration
same,8-OH dG positive cells/HPF,[2]; obstructed kidney,significantly reduced
same,renal mitochondrial oxygen consumption (state 3 respiration),renal mitochondria,significantly improved oxygen consumption
same,HO-1 expression in the obstructed kidney,[3],decreased HO-1 expression
